Experimental findings from US20250025520A1, “MICROBE-BASED MODULATION OF SEROTONIN BIOSYNTHESIS” (The Regents of the University of California, priority 2014, published 2025) are described below.

In one experiment the test system is TPH1. Nature of the experiment: Intestinal qRT-PCR, colonic TPH1 expression relative to GAPDH. The experiment is classed as in vivo, mouse. The protocol: The entire length of the mouse colon, or 1 cm regions of the distal, medial and proximal of the mouse small intestine were washed in PBS, flushed with PBS to remove luminal contents, and homogenized in ice-cold Trizol for RNA isolation using the RNeasy Mini Kit with on-column genomic DNA-digest (Qiagen) and cDNA synthesis using iScript (Biorad). qRT-PCR was performed on an ABI 7900 thermocycler using SYBR green master mix with Rox passive reference dye (Roche) and validated primer sets obtained from Primerbank (Harvard).

The test system of another experiment is platelets. In words: Platelet aggregation assay, collagen stimulation, flow cytometry. The experiment is classed as in vivo, mouse. The note with it: Sp-colonized mice, colonic PCPA injection. The protocol:
Blood samples were collected by cardiac puncture, diluted with a 2× volume of HEPES medium (132 mM NaCl, 6 mM KCl, 1 mM MgSO4, 1.2 mM KH2PO4, 20 mM HEPES, 5 mM glucose; pH 7.4) and centrifuged through PST lithium hepararin vacutainers (Becton Dickinson). Expression of platelet activation markers was measured by flow cytometry (Nieswandt et al., Methods Mol. Biol. 272:255-268 (2004); Ziu et al., J. Mol. Cell. Cardiol. 52:1112-1121 (2012)). Briefly, PRP samples were supplemented with 1 mM CaCl2, and 1×10^6 platelets were stimulated with 10 μg/ml type-1 HORM collagen (Chronolog), and stained with anti-JON/APE, anti-P-selectin-FITC (Emfret Analytics), anti-CD63-PE (Biologend), anti-CD41-FITC (BD Biosciences) and anti-CD9-APC (Abcam) for 15 min at room temperature. Samples were then washed in PBS, fixed with 0.5% formaldehyde and analyzed using a FACS Calibur flow cytometer (BD Biosciences). Platelet aggregation assays were conducted according to methods described in (De Cuyper et al., Blood 121:070-e80 (2013)). Briefly, 4×10^6 platelets were stained separately with CD9-APC or CD9-PE (Abcam) for 15 minutes at room temperature and then washed with HEPES medium. Labeled platelets were mixed 1:1 and incubated for 15 minutes at 37° C., with shaking at 600 rpm. Platelets were then stimulated with 10 μg/ml type-1 collagen for 2 min and fixed in 0.5% formaldehyde for flow cytometry. […]

The test system of a further experiment is colon 5-HT. In words: Colon 5-HT by ELISA, normalized to total protein. It counts as in vivo, mouse. The following applies: for effects of a single rectal injection on raising colon 5-HT levels: time course. The text has this:
(§1) Blood samples were collected by cardiac puncture and spun through SST vacutainers (Becton Dickinson) for serum separation or PST lithium hepararin vacutainers (Becton Dickinson, Franklin Lakes, NJ) for plasma separation. The entire length of the colon or 1 cm regions of the distal, medial and proximal colon of the small intestine were washed in PBS, flushed with PBS to remove luminal contents, and sonicated on ice in 10 s intervals at 20 mV in ELISA standard buffer supplemented with ascorbic acid (Eagle Biosciences, Nashua, NH). Serotonin levels were detected in sera and supernatant of tissue homogenates by ELISA according to the manufacturer's instructions (Eagle Biosciences, Nashua, NH). Readings from tissue samples were normalized to total protein content as detected by BCA assay (Thermo Pierce). Data compiled across multiple experiments are expressed as 5-HT concentrations normalized to SPF controls within each experiment.

In a further experiment the test system is SLC6A4. Nature of the experiment: Intestinal qRT-PCR, colonic SLC6A4 expression relative to GAPDH. The experiment is classed as in vivo, mouse. The note with it: Sp-colonized mice, PCPA intrarectally.
The next experiment concerns serum 5-HT. Nature of the experiment: Serum 5-HT by ELISA. It counts as in vivo, mouse.
Description: as §1

The next experiment in a line: Tail bleed assay. The experiment is classed as in vivo, mouse. The following applies: Sp-colonized mice, intrarectal PCPA. The procedure:
Mice were anesthetized with isoflurane and the distal 6 mm portion of the tail was transected using a fresh razor blade. The tail was placed immediately at a 2 cm depth into a 50 mL conical tube containing saline pre-warmed to 37° C. (Liu et al., World J. Exp. Med. 2:30-36 (2012)). Time to bleeding cessation was recorded, with continued recording if re-bleeding occurred within 15 seconds of initial cessation and a maximum total bleed time of 5 minutes. Mice were sacrificed by CO2 immediately after the assay.

Experiment [1] relates to colonic enterochromaffin cells (ECs). In words: Immunofluorescence staining of 5-HT and CgA in colon. It counts as in vivo, mouse. The procedure: (§2) Mouse colon was cut into distal, medial and proximal sections, and 1 cm regions of the distal, medial and proximal small intestine were fixed in Bouin's solution (Sigma Aldrich) overnight at 4° C., washed and stored in 70% ethanol. Intestinal samples were then paraffin-embedded and cut into 10 um longitudinal sections by Pacific Pathology, Inc (San Diego, CA). Sections were stained using standard procedures. Briefly, slides were deparaffinized, and antigen retrieval was conducted for 1 hr in a 95° C. water bath in 10 mM sodium citrate, pH 6.0 or DAKO solution (Agilent Technologies). […] For 5-HT and CgA staining, numbers of positively-stained puncta were scored blindly, normalized to total area of intestinal mucosa using ImageJ software (NIH) (Schneider et al., Nature Methods 9:671-675 (2012)), and then averaged across biological replicates. For calretinin, cfos and 5HT4 staining, fluorescence intensity for individual stains was quantified and normalized to total area of intestinal submucosa and muscularis externa using ImageJ software. Colocalization was measured and analyzed using the Coloc2 plug-in for Fiji software described in Schindelin et al., Nature Methods 9:676-682 (2012). […]

Experiment [2] concerns intrinsic afferent primary neurons (IPANs) of the myenteric plexus. In words: c-fos and calretinin (Calb2) colocalization. The experiment is classed as in vivo, mouse. The following applies: Sp-colonized mice treated with PCPA. The procedure: as §2
The next experiment concerns RIN14B cells. In words: RIN14B in vitro culture, 5-HT release. The note with it: for 5-HT in RIN14B chromaffin cell cultures: α-tocopherol 8 uM, butyrate 100 uM, cholate 75 uM, deoxycholate 25 uM, p-aminobenzoate 1 uM, propionate 100 uM, tyramine 100 uM.
The next experiment has as its system TPH1 in RIN14B cells. In words: RIN14B in vitro culture, TPH1 expression by qRT-PCR. The note with it: colonic luminal filtrate, or 15 uM ionomycin; relative to vehicle-treated controls.
The mark [3] stands for this setting: GF mice colonized with hSp, PCPA treatment.
Setting [4] is: Sp-colonized GF mice, PCPA intrarectally twice daily for 3 days.
Where [5] appears, read: GF mice, oral supplementation in water 1.5 mg/ml, 2 weeks.
Setting [6] is: GF mice, intrarectal injection: deoxycholate 125 mg/kg, α-tocopherol 2.25 mg/kg, PABA 1.37 μg/kg, tyramine 0.137 mg/kg, oleanolate 0.46 mg/kg, vs vehicle.

For `N[C@@H](Cc1ccc(Cl)cc1)C(=O)O` (racemic) [PCPA, parachlorophenylalanine], in the experiment on TPH1 (Sp-colonized mice, PCPA intrarectally), the “colonic TPH1 expression” value was “compensatory increase in colonic TPH1”. The “Sp effect on platelet aggregation” value in the experiment with platelets is reported as “attenuated”. Also, in the experiment on colon 5-HT (setting [3]), the “colon 5-HT” value is listed as “blocking increases”. In addition, the “colon 5-HT levels” value with colon 5-HT (setting [4]) was “sufficiently blocks the ability of Sp to elevate”. Also, the “colonic SLC6A4 expression” value in the experiment with SLC6A4 is recorded as “decrease in SLC6A4”. For the same molecule, the “serum 5-HT” value in the experiment on serum 5-HT (setting [3]) is reported as “blocking increases”. The “serum 5-HT levels” value in the experiment on serum 5-HT (setting [4]) is listed as “sufficiently blocks the ability of Sp to elevate”. Besides, the “Sp effect on bleeding time” value in “Tail bleed assay” is “attenuated”. In addition, the “5-HT staining in colonic ECs” value in [1] (setting [3]) is recorded as “blocking increases”. Besides, in [1] (setting [4]), the “5-HT staining in ECs” value is “sufficiently blocks”. Besides, in [2], the IPAN activation entry is on record as “decreases IPAN activation”.
Consider `N[C@@H](Cc1c[nH]c2ccc(O)cc12)C(=O)O` [5-HTP, 5-hydroxytryptophan], for which the “colon 5-HT” value in the experiment with colon 5-HT (setting [5]) is “sufficiently ameliorates deficits”. Further, the “serum 5-HT” value in the experiment on serum 5-HT (setting [5]) was “sufficiently ameliorates deficits”.
As for `Nc1ccc(C(=O)O)cc1` [PABA, p-aminobenzoate], in the experiment with colon 5-HT (setting [6]), the “colon 5-HT” value is given as “Increases”. Further, the “5-HT in RIN14B chromaffin cell cultures” value with RIN14B cells is reported as “elevate 5-HT”. In addition, the “serum 5-HT” value with serum 5-HT (setting [6]) is on record as “Increases”.
In the case of `N[C@@H](Cc1c[nH]c2ccccc12)C(=O)O` [Trp, tryptophan], the “colon 5-HT” value with colon 5-HT (setting [5]) was “no restorative effect”. Further, the “serum 5-HT” value in the experiment on serum 5-HT (setting [5]) is reported as “no restorative effect”.
`C[C@H](CCC(=O)O)[C@H]1CC[C@H]2[C@@H]3[C@H](O)C[C@@H]4C[C@H](O)CC[C@]4(C)[C@H]3C[C@H](O)[C@]12C` [cholate]: the “5-HT in RIN14B chromaffin cell cultures” value in the experiment with RIN14B cells was “elevate 5-HT”.
For the molecule `C[C@H](CCC(=O)O)C[C@H](C)C[C@H](C)C(=O)/C=C(\O)[C@H](C)C[C@H](C)C/C=C/[C@@H](C)[C@@H](O)[C@@H](C)[C@@H](O)C[C@@H]1CC[C@@](C)([C@H]2CC[C@@](C)([C@@H](C)O)O2)O1` [ionomycin, reference compound], in the experiment with RIN14B cells (colonic luminal filtrate 1 hr at 37° C., or 15 uM ionomycin, relative to vehicle-treated controls), the “5-HT released from RIN14B cells” value is “stimulates 5-HT release”. Also, in the experiment on TPH1 in RIN14B cells, the “TPH1 expression in RIN14B cells” value is on record as “no effect on TPH1 expression”.
As to `CC1(C)CC[C@]2(C(=O)O)CC[C@]3(C)C(=CC[C@@H]4[C@@]5(C)CC[C@H](O)C(C)(C)[C@@H]5CC[C@]43C)[C@@H]2C1` [oleanolate], in the experiment on colon 5-HT (setting [6]), the “colon 5-HT” value is recorded as “no statistically significant effect”. The “serum 5-HT” value in the experiment with serum 5-HT (setting [6]) is listed as “no statistically significant effect”.
On to `CCC(=O)O` [propionate], for which the “5-HT in RIN14B chromaffin cell cultures” value with RIN14B cells is “elevate 5-HT”.
Turning to `NCCc1ccc(O)cc1` [tyramine], the “colon 5-HT” value in the experiment with colon 5-HT (setting [6]) was “Increases”. In addition, the “5-HT in RIN14B chromaffin cell cultures” value in the experiment on RIN14B cells was “elevate 5-HT”. For the same molecule, the “serum 5-HT” value with serum 5-HT (setting [6]) was “Increases”.
In the case of `Cc1c(C)c2c(c(C)c1O)CC[C@@](C)(CCC[C@H](C)CCC[C@H](C)CCCC(C)C)O2` [α-tocopherol], in the experiment with colon 5-HT (setting [6]), the “colon 5-HT” value was “Increases”. Besides, in the experiment with colon 5-HT (GF mice), the “effects of a single rectal injection on raising colon 5-HT levels” value is “weak and transient”. In addition, the “5-HT in RIN14B chromaffin cell cultures” value in the experiment on RIN14B cells is listed as “elevate 5-HT”. In the experiment with serum 5-HT (setting [6]), the “serum 5-HT” value is on record as “Increases”.
As to Bacteroides fragilis, the “serum 5-HT levels” value with serum 5-HT (GF mice colonized, monoassociated or conventionalized, compared with GF and SPF controls) was “deficits in serum 5-HT that are comparable to those seen in GF mice”.
As for deoxycholate, the “colonic TPH1 expression” value in the experiment on TPH1 (GF mice, intrarectal deoxycholate 125 mg/kg, 1 hr post injection) is given as “elevations in colonic TPH1 expression”. For the same molecule, in the experiment with colon 5-HT (setting [6]), the “colon 5-HT” value is “sufficiently increases”. The “effects of a single rectal injection on raising colon 5-HT levels” value with colon 5-HT (GF mice) was “weak and transient”. For the same molecule, in the experiment with RIN14B cells, the “5-HT in RIN14B chromaffin cell cultures” value was “elevate 5-HT”. The “serum 5-HT” value with serum 5-HT (setting [6]) is listed as “sufficiently increases”.
